The structures appear in SMILES notation.

Sequence of S. aureus GyrB ATPase (P0AES4 whole entry): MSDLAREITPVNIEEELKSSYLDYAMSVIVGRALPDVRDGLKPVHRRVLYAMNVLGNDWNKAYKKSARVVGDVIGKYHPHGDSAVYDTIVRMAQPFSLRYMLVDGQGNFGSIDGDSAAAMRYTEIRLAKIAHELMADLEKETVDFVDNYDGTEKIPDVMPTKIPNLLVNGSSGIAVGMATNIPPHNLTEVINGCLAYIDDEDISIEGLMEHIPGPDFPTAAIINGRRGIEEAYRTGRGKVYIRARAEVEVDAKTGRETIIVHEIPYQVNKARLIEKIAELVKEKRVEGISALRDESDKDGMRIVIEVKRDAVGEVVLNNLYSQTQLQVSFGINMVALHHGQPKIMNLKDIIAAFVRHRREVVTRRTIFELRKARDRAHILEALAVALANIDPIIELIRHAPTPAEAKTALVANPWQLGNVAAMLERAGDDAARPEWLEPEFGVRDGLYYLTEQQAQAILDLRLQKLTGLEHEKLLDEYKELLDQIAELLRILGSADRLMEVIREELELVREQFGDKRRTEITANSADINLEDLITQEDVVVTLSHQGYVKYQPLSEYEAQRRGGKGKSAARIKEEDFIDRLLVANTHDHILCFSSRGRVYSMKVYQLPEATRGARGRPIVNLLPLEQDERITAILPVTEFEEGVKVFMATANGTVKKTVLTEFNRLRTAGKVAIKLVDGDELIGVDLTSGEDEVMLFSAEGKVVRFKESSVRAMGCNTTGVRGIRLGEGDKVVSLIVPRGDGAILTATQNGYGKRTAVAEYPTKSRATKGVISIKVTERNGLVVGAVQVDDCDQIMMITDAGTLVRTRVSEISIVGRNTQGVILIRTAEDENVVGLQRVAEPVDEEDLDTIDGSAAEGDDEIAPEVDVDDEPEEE
Sequence of S. aureus GyrB ATPase (P0A0K8 whole entry): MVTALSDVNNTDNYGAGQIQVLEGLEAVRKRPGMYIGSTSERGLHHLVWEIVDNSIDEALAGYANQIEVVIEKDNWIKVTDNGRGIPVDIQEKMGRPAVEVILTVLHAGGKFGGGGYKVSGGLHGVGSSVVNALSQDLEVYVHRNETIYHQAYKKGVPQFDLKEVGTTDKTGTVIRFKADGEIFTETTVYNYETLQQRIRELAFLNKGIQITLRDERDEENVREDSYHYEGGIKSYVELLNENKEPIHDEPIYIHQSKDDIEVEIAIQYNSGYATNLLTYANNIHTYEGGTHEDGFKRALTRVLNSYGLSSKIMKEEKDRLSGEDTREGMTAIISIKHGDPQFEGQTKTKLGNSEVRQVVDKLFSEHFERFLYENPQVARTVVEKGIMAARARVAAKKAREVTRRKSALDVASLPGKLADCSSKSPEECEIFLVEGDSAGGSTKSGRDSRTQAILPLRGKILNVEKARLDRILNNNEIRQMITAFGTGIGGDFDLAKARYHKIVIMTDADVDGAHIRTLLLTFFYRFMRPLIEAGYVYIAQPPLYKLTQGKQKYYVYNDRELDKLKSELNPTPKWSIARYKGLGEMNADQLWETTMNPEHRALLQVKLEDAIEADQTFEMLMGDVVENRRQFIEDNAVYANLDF

One assay addresses S. aureus GyrB ATPase (Staphylococcus aureus, UniProt P0A0K8). The experiment in a line: S. aureus GyrB ATPase inhibition (ammonium molybdate/malachite green phosphate detection). The format is biochemical. As to conditions: compound concentration of 1 μM. As to the method:
S. aureus GyrB ATPase Inhibition Activity: Compounds may be tested for inhibition of S. aureus GyrB ATPase activity using an ammonium molybdate/malachite green-based phosphate detection assay (Lanzetta, P. A., L. J. Alvarez, P. S. Reinach, and O. A. Candia, 1979, 100: 95-97). Assays can be performed in multiwell plates in 30 μl reactions containing: 50 mM Hepes buffer pH 7.5, 75 mM ammonium acetate, 8.0 mM magnesium chloride, 0.5 mM ethylenediaminetetraacetic acid, 5% glycerol, 1.0 mM 1,4-Dithio-DL-threitol, 200 nM bovine serum albumin, 1.0 μg/ml sheared salmon sperm DNA, 250 pM E. coli GyrA, 250 pM S. aureus GyrB, 250 μM ATP, and compound in dimethylsulfoxide. Reactions can be quenched with […] of ammonium molybdate/malachite green detection reagent containing 1.2 mM malachite green hydrochloride, 8.5 mM ammonium molybdate tetrahydrate, and 1 M hydrochloric acid. Plates can be read in an absorbance plate reader at 650 nm and percent inhibition values can be calculated using dimethylsulfoxide (2%)-containing reactions as 0% inhibition and EDTA-containing ([…]) reactions as 100% inhibition controls. An IC50 measurement of compound potency for each compound can be determined from reactions performed in the presence of 10 different compound concentrations.
Compounds of the invention were tested in an assay substantially similar to the assay described above for measuring the inhibition of S. aureus GyrB ATPase. Percent inhibition of S. aureus GyrB ATPase at a compound concentration of 1 μM (unless otherwise noted) is disclosed in the following table: […]
As for `Cc1[nH]c(C(=O)N[C@@H]2CCN(c3nc(-c4ncccc4F)c(C(=O)O)s3)C[C@@H]2F)c(Cl)c1Cl` [Example 119, 2-((3S,4R)-4-(3,4-dichloro-5-methyl-1H-pyrrole-2-carboxamido)-3-fluoropiperidin-1-yl)-4-(3-fluoropyridin-2-yl)thiazole-5-carboxylic acid], the inhibition at 1 µM worked out at 79.4%.
As for `Cc1[nH]c(C(=O)N[C@@H]2CCN(c3nc(-c4cn(C)nn4)c(C(=O)O)s3)C[C@@H]2F)c(Cl)c1Cl` [Example 116, 2-((3S,4R)-4-(3,4-dichloro-5-methyl-1H-pyrrole-2-carboxamido)-3-fluoropiperidin-1-yl)-4-(1-methyl-1H-1,2,3-triazol-4-yl)thiazole-5-carboxylic acid], the inhibition at 1 µM stood at 101%.
Consider `Cc1[nH]c(C(=O)N[C@@H]2CCN(c3nc(-c4ncc[nH]4)c(C(=O)O)s3)C[C@@H]2F)c(Cl)c1Cl` [Example 20, 2-((3S,4R)-4-{[(3,4-Dichloro-5-methyl-1H-pyrrol-2-yl)carbonyl]amino}-3-fluoropiperidin-1-yl)-4-(1H-imidazol-2-yl)-1,3-thiazole-5-carboxylic acid], for which the inhibition at 1 µM was 98.6%.
The same measure, in the same setting: next, `COC(=O)c1sc(N2CC[C@@H](NC(=O)c3[nH]c(C)c(Cl)c3Cl)[C@@H](OC)C2)nc1-c1ncnn1C` [Example 66]: 101%; `Cc1[nH]c(C(=O)N[C@@H]2CCN(c3nc(-c4ncccc4F)c(C(=O)O)s3)C[C@@H]2OCc2ccccc2)c(C#N)c1Cl` [Example 154, 2-[(3S,4R)-3-(benzyloxy)-4-{[(4-chloro-3-cyano-5-methyl-1H-pyrrol-2-yl)carbonyl]amino}piperidin-1-yl]-4-(3-fluoropyridin-2-yl)-1,3-thiazole-5-carboxylic acid]: 112%.
Regarding `CO[C@H]1CN(c2nc(-c3nccn3C)c(C(=O)O)s2)CC[C@H]1NC(=O)c1[nH]c(C)c(Cl)c1Cl` [Example 21, 2-((3S,4R)-4-{[(3,4-Dichloro-5-methyl-1H-pyrrol-2-yl)carbonyl]amino}-3-methoxypiperidin-1-yl)-4-(1-methyl-1H-imidazol-2-yl)-1,3-thiazole-5-carboxylic acid], the inhibition at 1 µM was 99.1%.
Turning to `Cc1[nH]c(C(=O)N[C@@H]2CCN(c3nc(-c4ncnn4C)c(C(=O)O)s3)C[C@@H]2F)c(Cl)c1Cl` [Example 28, 2-((3S,4R)-4-{[(3,4-Dichloro-5-methyl-1H-pyrrol-2-yl)carbonyl]amino}-3-fluoropiperidin-1-yl)-4-(1-methyl-1H-1,2,4-triazol-5-yl)-1,3-thiazole-5-carboxylic acid], the inhibition at 1 µM turned out to be 87.1%.
Same read-out and setting: next, `CO[C@H]1CN(c2nc(-c3cn(C)nn3)c(C(=O)O)s2)CC[C@H]1NC(=O)c1[nH]c(C)c(Cl)c1Cl` [Example 109, 2-((3S,4R)-4-(3,4-dichloro-5-methyl-1H-pyrrole-2-carboxamido)-3-methoxypiperidin-1-yl)-4-(1-methyl-1H-1,2,3-triazol-4-yl)thiazole-5-carboxylic acid]: 101%; `COC(=O)c1sc(N2CC[C@@H](NC(=O)c3[nH]c(C)c(Cl)c3Cl)[C@@H](OC)C2)nc1-c1cccc(OC)n1` [Example 94, methyl 2-((3S,4R)-4-(3,4-dichloro-5-methyl-1H-pyrrole-2-carboxamido)-3-methoxypiperidin-1-yl)-4-(6-methoxypyridin-2-yl)thiazole-5-carboxylate]: 106%.
As for `CO[C@H]1CN(c2nc(-c3csc(N(C)C)n3)c(C(=O)O)s2)CC[C@H]1NC(=O)c1[nH]c(C)c(Cl)c1Cl` [Example 35, 2-((3S,4R)-4-{[(3,4-Dichloro-5-methyl-1H-pyrrol-2-yl)carbonyl]amino}-3-methoxypiperidin-1-yl)-2′-(dimethylamino)-4,4′-bi-1,3-thiazole-5-carboxylic acid], the inhibition at 1 µM was 96.6%.
Turning to `CO[C@H]1CN(c2nc(-c3ccccn3)c(C(=O)O)s2)CC[C@H]1NC(=O)c1[nH]c(C)c(Cl)c1Cl` [Example 7, 2-((3S,4R)-4-{[(3,4-Dichloro-5-methyl-1H-pyrrol-2-yl)carbonyl]amino}-3-methoxypiperidin-1-yl)-4-pyridin-2-yl-1,3-thiazole-5-carboxylic acid], the inhibition at 1 µM stood at 97.1%.
`COC(=O)c1sc(N2CC[C@@H](NC(=O)c3cc(C#N)c(C)[nH]3)[C@@H](OC)C2)nc1-c1ncnn1C` [Example 68]: the inhibition at 1 µM came out at 97%.
With `CCOC(=O)c1sc(N2CC[C@@H](NC(=O)c3[nH]c(C)c(Cl)c3C#N)[C@@H](OC)C2)nc1-c1ncccc1F` [Example 106, ethyl 2-((3S,4R)-4-(4-chloro-3-cyano-5-methyl-1H-pyrrole-2-carboxamido)-3-methoxypiperidin-1-yl)-4-(3-fluoropyridin-2-yl)thiazole-5-carboxylate], the inhibition at 1 µM was found to be 101%.
The same measure, in the same setting: next, `COCCn1ccnc1-c1nc(N2CC[C@@H](NC(=O)c3[nH]c(C)c(Cl)c3Cl)[C@@H](OCc3ccccc3)C2)sc1C(=O)O` [Example 143, 2-[(3S,4R)-3-(benzyloxy)-4-{[(3,4-dichloro-5-methyl-1H-pyrrol-2-yl)carbonyl]amino}piperidin-1-yl]-4-[1-(2-methoxyethyl)-1H-imidazol-2-yl]-1,3-thiazole-5-carboxylic acid]: 98.8%.
Consider `CO[C@H]1CN(c2nc(-c3nnc(C)o3)c(C(=O)O)s2)CC[C@H]1NC(=O)c1[nH]c(C)c(Cl)c1Cl` [Example 90, 2-((3S,4R)-4-{[(3,4-Dichloro-5-methyl-1H-pyrrol-2-yl)carbonyl]amino}-3-methoxypiperidin-1-yl)-4-(5-methyl-1,3,4-oxadiazol-2-yl)-1,3-thiazole-5-carboxylic acid], for which the inhibition at 1 µM came to 101%.
The same measure, in the same setting: next, `Cc1[nH]c(C(=O)N[C@@H]2CCN(c3nc(-c4ncccn4)c(C(=O)O)s3)C[C@@H]2F)c(Cl)c1Cl` [Example 4, 2-((3S,4R)-4-{[(3,4-Dichloro-5-methyl-1H-pyrrol-2-yl)carbonyl]amino}-3-fluoropiperidin-1-yl)-4-pyrimidin-2-yl-1,3-thiazole-5-carboxylic acid]: 97.7%; `Cc1[nH]c(C(=O)N[C@@H]2CCN(c3nc(-c4csc(N)n4)c(C(=O)O)s3)C[C@@H]2F)c(Cl)c1Cl` [Example 36, 2′-Amino-2-((3S,4R)-4-{[(3,4-dichloro-5-methyl-1H-pyrrol-2-yl)carbonyl]amino}-3-fluoropiperidin-1-yl)-4,4′-bi-1,3-thiazole-5-carboxylic acid]: 99.6%; `CO[C@H]1CN(c2nc(-c3nccs3)c(C(=O)O)s2)CC[C@H]1NC(=O)c1[nH]c(C)c(Cl)c1Cl` [Example 3, 2′-((3S,4R)-4-{[(3,4-Dichloro-5-methyl-1H-pyrrol-2-yl)carbonyl]amino}-3-methoxypiperidin-1-yl)-2,4′-bi-1,3-thiazole-5′-carboxylic acid]: 98.6%.

Still in this assay, the particulars now being: compound tested at a concentration of 5 μM.
`CCCO[C@H]1CN(c2nc(-c3cnccn3)c(C(=O)O)s2)CC[C@H]1NC(=O)c1[nH]c(C)c(Cl)c1Cl` [Example 161, 2-[(3S,4R)-4-{[(3,4-dichloro-5-methyl-1H-pyrrol-2-yl)carbonyl]amino}-3-propoxypiperidin-1-yl]-4-(pyrazin-2-yl)-1,3-thiazole-5-carboxylic acid]: the inhibition at 5 µM was determined as 14%.

Source of the values: patent US20080312255A1 (ASTRAZENECA AB, priority 2007, published 2008).
